Laboratory results from patent USRE48335E1, “Polymyxin derivatives as antimicrobial compounds” (priority 2014, dated 2020).
Values after ≈ are worked out from the molar mass of the structure shown. Like-named read-outs stand apart in the source and are kept apart here. Positions of bridges follow the written chain, without caps; N, C: chain ends. Non-standard residues stand in square brackets, D forms with d. Residues, ends and D or L forms follow the SMILES beside them. *: point of attachment. Benzoyl(3,5-Cl2) = O=C(c1cc(Cl)cc(Cl)c1)*; X18 = O=C(c1ccc(Cl)c(C(F)(F)F)c1)*; X21 = O=C(c1ccc(C(F)(F)F)c(Cl)c1)*; X20 = Cc1cc(C(=O)*)ccc1C(F)(F)F; X15 = O=C(c1ccc(Cl)c(F)c1)*; X19 = Cc1cc(Cl)cc(C(=O)*)c1; Dab = NCC[C@H](N)C(=O)O; Abu = CC[C@H](N)C(=O)O; Dap = NC[C@H](N)C(=O)O

Assays:
Acinetobacter baumannii = system: Acinetobacter baumannii
Procedure, shortened: (§1)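 Lipopeptides, as trifluoroacetate salts, tested for MIC in CAMHB by CLSI broth microdilution, with polymyxin B (sulphate) as comparator.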

Enterobacter cloacae = system: Enterobacter cloacae
Procedure, shortened: as §1

Klebsiella pneumoniae = system: Klebsiella pneumoniae
Procedure, shortened: as §1

Pseudomonas aeruginosa = system: Pseudomonas aeruginosa
Procedure, shortened: as §1

P. aeruginosa ATCC 27853 = assay: In vivo efficacy in mouse blood infection model (neutropenic Swiss mice); details: compound, free base 4 mg/kg intravenously 2 h after inoculation, blood at 4 h
Procedure, shortened: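 Activity expressed as Δlog10 CFU/mL blood, treated minus saline control, 4 h after a single 4 mg/kg (free base) i.v. dose given 2 h post-infection. Bloodstream infection from i.v. early log-phase inoculum in Swiss mice made neutropenic by i.p. cyclophosphamide on days −4 (150 mg/kg) and −1 (100 mg/kg).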

[1] = Acinetobacter baumannii ATCC 17978, broth microdilution in CAMHB
[2] = Acinetobacter baumannii ATCC 19606, broth microdilution in CAMHB
[3] = Acinetobacter baumannii FADDI-AB034, broth microdilution in CAMHB
[4] = Enterobacter cloacae FADDI-EC001, broth microdilution in CAMHB
[5] = Enterobacter cloacae FADDI-EC003, broth microdilution in CAMHB
[6] = Enterobacter cloacae FADDI-EC006, broth microdilution in CAMHB
[7] = Pseudomonas aeruginosa ATCC 27853, broth microdilution in CAMHB
[8] = Pseudomonas aeruginosa FADDI-PA022, broth microdilution in CAMHB
[9] = Pseudomonas aeruginosa FADDI-PA025, broth microdilution in CAMHB

SMILES	MIC (Acinetobacter baumannii) [µg/mL]	Minimum inhibitory concentration, Ab A ATCC 17978 (Acinetobacter baumannii) [µg/mL]	Minimum inhibitory concentration, Ab ATCC 19606 (Acinetobacter baumannii) [µg/mL]	Minimum inhibitory concentration, Ab FADDI-AB034 (Acinetobacter baumannii) [µg/mL]	Minimum inhibitory concentration, Ec FADDI-EC001 (Enterobacter cloacae) [µg/mL]	Minimum inhibitory concentration, Ec FADDI-EC003 (Enterobacter cloacae) [µg/mL]	Minimum inhibitory concentration, Ec FADDI-EC006 (Enterobacter cloacae) [µg/mL]	MIC (Klebsiella pneumoniae) [µg/mL]	MIC (Pseudomonas aeruginosa) [µg/mL]	Minimum inhibitory concentration, Pa ATCC 27853 (Pseudomonas aeruginosa) [µg/mL]	Minimum inhibitory concentration, Pa FADDI-PA022 (Pseudomonas aeruginosa) [µg/mL]	Minimum inhibitory concentration, Pa FADDI-PA025 (Pseudomonas aeruginosa) [µg/mL]	Δ log (Treated-Control at 4 h) (P. aeruginosa ATCC 27853) [log10 CFU/mL]	further results
CC[C@@H]1NC(=O)[C@@H](CC(C)C)NC(=O)[C@H](CCN)NC(=O)[C@@H](NC(=O)[C@H](CN)NC(=O)[C@@H](NC(=O)[C@H](CCN)NC(=O)c2ccc(Cl)c(F)c2)[C@@H](C)O)CCNC(=O)[C@H]([C@@H](C)O)NC(=O)[C@H](CCN)NC(=O)[C@H](CCN)NC1=O [Compound 107] (X15-[Dab]T[Dap][Dab][Dab][dL][Abu][Dab][Dab]T; lactam 4-C)	2 (≈ 1.75 µM)	0.5 (≈ 0.437 µM)	2 (≈ 1.75 µM)	0.25 (≈ 0.219 µM)	0.25 (≈ 0.219 µM)	0.25 (≈ 0.219 µM)	0.25 (≈ 0.219 µM)	0.25 (≈ 0.219 µM)	0.5 (≈ 0.437 µM)	0.5 (≈ 0.437 µM)	0.5 (≈ 0.437 µM)	2 (≈ 1.75 µM)	−2.98	–
CC[C@@H]1NC(=O)[C@@H](CC(C)C)NC(=O)[C@H](CCN)NC(=O)[C@@H](NC(=O)[C@H](CN)NC(=O)[C@@H](NC(=O)[C@H](CCN)NC(=O)c2ccc(Cl)c(C(F)(F)F)c2)[C@@H](C)O)CCNC(=O)[C@H]([C@@H](C)O)NC(=O)[C@H](CCN)NC(=O)[C@H](CCN)NC1=O [Compound 112] (X18-[Dab]T[Dap][Dab][Dab][dL][Abu][Dab][Dab]T; lactam 4-C)	0.25 (≈ 0.209 µM)	<0.125	0.25 (≈ 0.209 µM)	0.25 (≈ 0.209 µM)	0.5 (≈ 0.419 µM)	0.25 (≈ 0.209 µM)	0.5 (≈ 0.419 µM)	0.5 (≈ 0.419 µM)	0.5 (≈ 0.419 µM)	0.5 (≈ 0.419 µM)	0.5 (≈ 0.419 µM)	1 (≈ 0.838 µM)	−3.15	–
CC[C@@H]1NC(=O)[C@@H](CC(C)C)NC(=O)[C@H](CCN)NC(=O)[C@@H](NC(=O)[C@H](CN)NC(=O)[C@@H](NC(=O)[C@H](CCN)NC(=O)c2cc(C)cc(Cl)c2)[C@@H](C)O)CCNC(=O)[C@H]([C@@H](C)O)NC(=O)[C@H](CCN)NC(=O)[C@H](CCN)NC1=O [Compound 114] (X19-[Dab]T[Dap][Dab][Dab][dL][Abu][Dab][Dab]T; lactam 4-C)	2 (≈ 1.75 µM)	0.5 (≈ 0.439 µM)	2 (≈ 1.75 µM)	0.5 (≈ 0.439 µM)	0.25 (≈ 0.219 µM)	0.25 (≈ 0.219 µM)	0.25 (≈ 0.219 µM)	0.25 (≈ 0.219 µM)	0.5 (≈ 0.439 µM)	0.5 (≈ 0.439 µM)	1 (≈ 0.877 µM)	1 (≈ 0.877 µM)	−2.57	–
CC[C@@H]1NC(=O)[C@@H](CC(C)C)NC(=O)[C@H](CCN)NC(=O)[C@@H](NC(=O)[C@H](CN)NC(=O)[C@@H](NC(=O)[C@H](CCN)NC(=O)c2ccc(C(F)(F)F)c(Cl)c2)[C@@H](C)O)CCNC(=O)[C@H]([C@@H](C)O)NC(=O)[C@H](CCN)NC(=O)[C@H](CCN)NC1=O [Compound 115] (X21-[Dab]T[Dap][Dab][Dab][dL][Abu][Dab][Dab]T; lactam 4-C)	0.5 (≈ 0.419 µM)	0.5 (≈ 0.419 µM)	0.5 (≈ 0.419 µM)	0.5 (≈ 0.419 µM)	0.25 (≈ 0.209 µM)	0.25 (≈ 0.209 µM)	0.25 (≈ 0.209 µM)	0.125 (≈ 0.105 µM)	1 (≈ 0.838 µM)	1 (≈ 0.838 µM)	0.5 (≈ 0.419 µM)	1 (≈ 0.838 µM)	−2.71	–
CC(C)C[C@H]1NC(=O)[C@H](CCN)NC(=O)[C@@H](NC(=O)[C@H](CN)NC(=O)[C@@H](NC(=O)[C@H](CCN)NC(=O)c2cc(Cl)cc(Cl)c2)[C@@H](C)O)CCNC(=O)[C@H]([C@@H](C)O)NC(=O)[C@H](CCN)NC(=O)[C@H](CCN)NC(=O)[C@H](C)NC1=O [Compound 117] ({Benzoyl(3,5-Cl2)}-[Dab]T[Dap][Dab][Dab][dL]A[Dab][Dab]T; lactam 4-C)	–	–	–	–	–	–	–	–	–	–	–	–	−2.99	MIC (Acinetobacter baumannii; A. baumannii ATCC 19606): 1 µg/mL (≈ 0.872 µM); Minimum inhibitory concentration, Ab A ATCC 17978 (Acinetobacter baumannii; [1]): 0.25 µg/mL (≈ 0.218 µM); Minimum inhibitory concentration, Ab ATCC 19606 (Acinetobacter baumannii; [2]): 1 µg/mL (≈ 0.872 µM); Minimum inhibitory concentration, Ab FADDI-AB034 (Acinetobacter baumannii; [3]): 1 µg/mL (≈ 0.872 µM); Minimum inhibitory concentration, Ec FADDI-EC001 (Enterobacter cloacae; [4]): 0.25 µg/mL (≈ 0.218 µM); Minimum inhibitory concentration, Ec FADDI-EC003 (Enterobacter cloacae; [5]): 0.25 µg/mL (≈ 0.218 µM); Minimum inhibitory concentration, Ec FADDI-EC006 (Enterobacter cloacae; [6]): 1 µg/mL (≈ 0.872 µM); MIC (Klebsiella pneumoniae; K. pneumoniae FADDI-KP032): 0.25 µg/mL (≈ 0.218 µM); MIC (Pseudomonas aeruginosa; P. aeruginosa ATCC 27853): 0.25 µg/mL (≈ 0.218 µM); Minimum inhibitory concentration, Pa ATCC 27853 (Pseudomonas aeruginosa; [7]): 0.25 µg/mL (≈ 0.218 µM); Minimum inhibitory concentration, Pa FADDI-PA022 (Pseudomonas aeruginosa; [8]): 2 µg/mL (≈ 1.74 µM); Minimum inhibitory concentration, Pa FADDI-PA025 (Pseudomonas aeruginosa; [9]): 2 µg/mL (≈ 1.74 µM)
CC(C)C[C@H]1NC(=O)[C@H](CCN)NC(=O)[C@@H](NC(=O)[C@H](CN)NC(=O)[C@@H](NC(=O)[C@H](CCN)NC(=O)c2cc(Cl)cc(Cl)c2)[C@@H](C)O)CCNC(=O)[C@H]([C@@H](C)O)NC(=O)[C@H](CCN)NC(=O)[C@H](CCN)NC(=O)[C@H]([C@@H](C)O)NC1=O [Compound 118] ({Benzoyl(3,5-Cl2)}-[Dab]T[Dap][Dab][Dab][dL]T[Dab][Dab]T; lactam 4-C)	–	–	–	–	–	–	–	–	–	–	–	–	−3.53	MIC (Acinetobacter baumannii; A. baumannii ATCC 19606): 2 µg/mL (≈ 1.7 µM); Minimum inhibitory concentration, Ab A ATCC 17978 (Acinetobacter baumannii; [1]): >32 µg/mL; Minimum inhibitory concentration, Ab ATCC 19606 (Acinetobacter baumannii; [2]): 2 µg/mL (≈ 1.7 µM); Minimum inhibitory concentration, Ab FADDI-AB034 (Acinetobacter baumannii; [3]): 1 µg/mL (≈ 0.85 µM); Minimum inhibitory concentration, Ec FADDI-EC001 (Enterobacter cloacae; [4]): 1 µg/mL (≈ 0.85 µM); Minimum inhibitory concentration, Ec FADDI-EC003 (Enterobacter cloacae; [5]): 0.25 µg/mL (≈ 0.213 µM); Minimum inhibitory concentration, Ec FADDI-EC006 (Enterobacter cloacae; [6]): 0.5 µg/mL (≈ 0.425 µM); MIC (Klebsiella pneumoniae; K. pneumoniae FADDI-KP032): 0.25 µg/mL (≈ 0.213 µM); MIC (Pseudomonas aeruginosa; P. aeruginosa ATCC 27853): 0.5 µg/mL (≈ 0.425 µM); Minimum inhibitory concentration, Pa ATCC 27853 (Pseudomonas aeruginosa; [7]): 0.5 µg/mL (≈ 0.425 µM); Minimum inhibitory concentration, Pa FADDI-PA022 (Pseudomonas aeruginosa; [8]): 2 µg/mL (≈ 1.7 µM); Minimum inhibitory concentration, Pa FADDI-PA025 (Pseudomonas aeruginosa; [9]): 2 µg/mL (≈ 1.7 µM)
CC[C@@H]1NC(=O)[C@@H](CC(C)C)NC(=O)[C@H](CCN)NC(=O)[C@@H](NC(=O)[C@H](CN)NC(=O)[C@@H](NC(=O)[C@H](CCN)NC(=O)c2ccc(C(F)(F)F)c(C)c2)[C@@H](C)O)CCNC(=O)[C@H]([C@@H](C)O)NC(=O)[C@H](CCN)NC(=O)[C@H](CCN)NC1=O [Compound 119] (X20-[Dab]T[Dap][Dab][Dab][dL][Abu][Dab][Dab]T; lactam 4-C)	1 (≈ 0.852 µM)	0.5 (≈ 0.426 µM)	1 (≈ 0.852 µM)	0.25 (≈ 0.213 µM)	<0.125	<0.125	0.25 (≈ 0.213 µM)	<0.125	0.5 (≈ 0.426 µM)	0.5 (≈ 0.426 µM)	0.5 (≈ 0.426 µM)	2 (≈ 1.7 µM)	−3.40	–
